ChEMBL document CHEMBL1143399, “A small-molecule nitroimidazopyran drug candidate for the treatment of tuberculosis” (Nature, 2000)
In brackets after ≈: the same amount, converted by molar mass.

How the values were obtained:
Format in all cases: functional
[1] = test system: Mycobacterium tuberculosis; assay: Antimycobacterial activity against mono-rifampin-resistant Mycobacterium tuberculosis TN994
[2] = test system: Mycobacterium tuberculosis; assay: Antimycobacterial activity against mono-rifampin-resistant Mycobacterium tuberculosis TN675
[3] = test system: Mycobacterium tuberculosis; assay: Antimycobacterial activity against multidrug-resistant Mycobacterium tuberculosis TN1195
[4] = test system: Mycobacterium tuberculosis; assay: Antimycobacterial activity against multidrug-resistant Mycobacterium tuberculosis TN768
[5] = test system: Mycobacterium tuberculosis; assay: Antimycobacterial activity against multidrug-resistant Mycobacterium tuberculosis TN715
[6] = test system: Mycobacterium tuberculosis; assay: Antimycobacterial activity against multidrug-resistant Mycobacterium tuberculosis TN1811
[7] = test system: Mycobacterium tuberculosis; assay: Antimycobacterial activity against multidrug-resistant Mycobacterium tuberculosis TN1618
[8] = test system: Mycobacterium tuberculosis; assay: Antimycobacterial activity against multidrug-resistant Mycobacterium tuberculosis TN772
[9] = test system: Mycobacterium tuberculosis; assay: Antimycobacterial activity against multidrug-resistant Mycobacterium tuberculosis TN576
[10] = test system: Mycobacterium tuberculosis; assay: Antimycobacterial activity against multidrug-resistant Mycobacterium tuberculosis TN2557
[11] = test system: Mycobacterium tuberculosis; assay: Antimycobacterial activity against multidrug-resistant Mycobacterium tuberculosis TN702
[12] = test system: Mycobacterium tuberculosis; assay: Antimycobacterial activity against multidrug-resistant Mycobacterium tuberculosis TN565
[13] = test system: Mycobacterium tuberculosis; assay: Antimycobacterial activity against multidrug-resistant Mycobacterium tuberculosis TN1314

Question: Which results are given for `NNC(=O)c1ccncc1` [ISONIAZID]?
Answer: MIC [1]: 0.03 µg/mL (≈ 0.219 µM); MIC [2]: 0.03 µg/mL (≈ 0.219 µM)

Question: Which MIC [3] does the source give for `O=[N+]([O-])c1cn2c(n1)OC[C@@H](OCc1ccc(OC(F)(F)F)cc1)C2` [PRETOMANID] here?
Answer: Its MIC is 0.25 µg/mL (≈ 0.696 µM).

Question: What about the MIC [4] of the same compound?
Answer: The MIC was 0.06 µg/mL (≈ 0.167 µM).

Question: What about the MIC [5] of the same compound?
Answer: Its MIC is 0.06 µg/mL (≈ 0.167 µM).

Question: And the MIC [6]?
Answer: The MIC was 0.03 µg/mL (≈ 0.0835 µM).

Question: And the MIC [7]?
Answer: Its MIC is 0.06 µg/mL (≈ 0.167 µM).

Question: What about the MIC [8] of the same compound?
Answer: The MIC was 0.03 µg/mL (≈ 0.0835 µM).

Question: And the MIC [1]?
Answer: The MIC was 0.03 µg/mL (≈ 0.0835 µM).

Question: What about the MIC [9] of the same compound?
Answer: The MIC was 0.06 µg/mL (≈ 0.167 µM).

Question: And the MIC [10]?
Answer: Its MIC is 0.13 µg/mL (≈ 0.362 µM).

Question: And the MIC [2]?
Answer: The MIC was 0.015 µg/mL (≈ 0.0418 µM).

Question: And the MIC [11]?
Answer: Its MIC is 0.25 µg/mL (≈ 0.696 µM).

Question: And the MIC [12]?
Answer: Its MIC is 0.06 µg/mL (≈ 0.167 µM).

Question: And the MIC [13]?
Answer: The MIC was 0.03 µg/mL (≈ 0.0835 µM).
